Legend:
[1] = test system: treatment-naïve HIV-1-infected patients; test: Continuous Holter 12-lead ECG; type: in vivo, human; details: modified saquinavir/ritonavir regimen
[2] = test system: hERG channels heterologously expressed in HEK293 cells; details: cited from earlier work
HIV-positive patients = details: saquinavir monotherapy, 84 patients; cited from earlier work

CC(C)(C)NC(=O)[C@@H]1C[C@@H]2CCCC[C@@H]2CN1C[C@@H](O)[C@H](Cc1ccccc1)NC(=O)[C@H](CC(N)=O)NC(=O)c1ccc2ccccc2n1 [Saquinavir, saquinavir]
Correlation between maximum ∆QTcFdense and C max of saquinavir [1]: No strong correlation
Blockage of hERG channels ([2]; hERG heterologously expressed in HEK293 cells): dose-dependent blockage
Effect on hERG trafficking ([2]; in vitro): inhibitory effects
Clinical EC50 value, C min (HIV-positive patients): 0.05 µg/mL
